Assay results taken from ChEMBL document CHEMBL3112394, “Identification of the 5,5-dioxo-7,8-dihydro-6H-thiopyrano[3,2-d]pyrimidine derivatives as highly selective PDE4B inhibitors” (Bioorg Med Chem Lett, 2014).

What was measured:
[1] = molecular target: 3',5'-cyclic-AMP phosphodiesterase 4B (Homo sapiens, UniProt Q07343); test: Inhibition of full-length human PDE4B2 assessed as cAMP hydrolysis preincubated for 20 mins followed by cAMP addition measured after 30 mins
Homo sapiens [2] = species on record: Homo sapiens; test: Selectivity ratio of IC50 for full-length human PDE4D2 to IC50 for full-length human PDE4B2
[3] = molecular target: T1, 3',5'-cyclic-AMP phosphodiesterase 4D (Homo sapiens, UniProt Q08499); test: Inhibition of full-length human PDE4D2 assessed as cAMP hydrolysis preincubated for 20 mins followed by cAMP addition measured after 30 mins
[4] = Antiinflammatory activity in Balb/c mouse splenocytes assessed as inhibition of LPS-induced TNF-alpha production after 18 to 24 hrs; assay type: functional, cell-based; conditions: Splenocyte
[5] = molecular target: T1, 3',5'-cyclic-AMP phosphodiesterase 4D; test: Inhibition of recombinant human PDE4D (78 to 508)
Homo sapiens [6] = species on record: Homo sapiens; test: Selectivity ratio of IC50 for recombinant human PDE4D (78 to 508) to IC50 for recombinant human PDE4B (152 to 564)
[7] = Permeability of the compound at 50 uM at pH 7.4 after 4 hrs by PAMPA; assay type: ADME; conditions: read-out: permeability
[8] = 1-octanol-phosphate buffered saline distribution coefficient, log D of the compound at 200 uM at pH 7.4 after 30 mins by shake flask method; assay type: physicochemical
[9] = Terminal half life in mouse at 10 mg/kg, po; assay type: ADME, organism-based; parameters: dose 10 mg/kg, route oral; conditions: in vivo, read-out: beta t1/2 (converted)
[10] = AUC in mouse at 10 mg/kg, po; assay type: ADME, organism-based; parameters: dose 10 mg/kg, route oral; conditions: plasma
[11] = Cmax in mouse at 10 mg/kg, po; assay type: ADME, organism-based; parameters: dose 10 mg/kg, route oral; conditions: in vivo

T1 sequence (Q08499 whole entry): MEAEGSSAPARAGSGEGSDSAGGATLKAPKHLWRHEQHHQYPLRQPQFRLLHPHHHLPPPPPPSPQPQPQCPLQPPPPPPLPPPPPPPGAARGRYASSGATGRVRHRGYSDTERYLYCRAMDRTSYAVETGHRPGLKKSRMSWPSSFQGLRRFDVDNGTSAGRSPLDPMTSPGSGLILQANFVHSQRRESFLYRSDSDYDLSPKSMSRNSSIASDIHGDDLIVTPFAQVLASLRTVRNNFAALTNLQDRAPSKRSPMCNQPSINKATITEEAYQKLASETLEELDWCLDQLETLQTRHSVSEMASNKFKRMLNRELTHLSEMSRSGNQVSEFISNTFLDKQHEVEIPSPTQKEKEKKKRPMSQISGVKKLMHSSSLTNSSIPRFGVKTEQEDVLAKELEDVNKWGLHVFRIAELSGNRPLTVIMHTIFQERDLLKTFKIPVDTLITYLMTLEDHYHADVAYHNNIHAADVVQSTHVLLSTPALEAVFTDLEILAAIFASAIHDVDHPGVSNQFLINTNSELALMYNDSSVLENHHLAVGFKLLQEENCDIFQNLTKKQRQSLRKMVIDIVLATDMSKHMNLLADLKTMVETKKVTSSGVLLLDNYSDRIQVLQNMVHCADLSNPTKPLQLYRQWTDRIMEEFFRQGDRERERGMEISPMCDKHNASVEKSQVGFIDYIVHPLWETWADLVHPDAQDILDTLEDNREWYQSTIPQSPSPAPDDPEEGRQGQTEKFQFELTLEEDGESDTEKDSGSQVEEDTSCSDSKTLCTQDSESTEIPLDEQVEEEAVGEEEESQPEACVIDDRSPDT
Chain of 3',5'-cyclic-AMP phosphodiesterase 4B (Q07343 whole entry): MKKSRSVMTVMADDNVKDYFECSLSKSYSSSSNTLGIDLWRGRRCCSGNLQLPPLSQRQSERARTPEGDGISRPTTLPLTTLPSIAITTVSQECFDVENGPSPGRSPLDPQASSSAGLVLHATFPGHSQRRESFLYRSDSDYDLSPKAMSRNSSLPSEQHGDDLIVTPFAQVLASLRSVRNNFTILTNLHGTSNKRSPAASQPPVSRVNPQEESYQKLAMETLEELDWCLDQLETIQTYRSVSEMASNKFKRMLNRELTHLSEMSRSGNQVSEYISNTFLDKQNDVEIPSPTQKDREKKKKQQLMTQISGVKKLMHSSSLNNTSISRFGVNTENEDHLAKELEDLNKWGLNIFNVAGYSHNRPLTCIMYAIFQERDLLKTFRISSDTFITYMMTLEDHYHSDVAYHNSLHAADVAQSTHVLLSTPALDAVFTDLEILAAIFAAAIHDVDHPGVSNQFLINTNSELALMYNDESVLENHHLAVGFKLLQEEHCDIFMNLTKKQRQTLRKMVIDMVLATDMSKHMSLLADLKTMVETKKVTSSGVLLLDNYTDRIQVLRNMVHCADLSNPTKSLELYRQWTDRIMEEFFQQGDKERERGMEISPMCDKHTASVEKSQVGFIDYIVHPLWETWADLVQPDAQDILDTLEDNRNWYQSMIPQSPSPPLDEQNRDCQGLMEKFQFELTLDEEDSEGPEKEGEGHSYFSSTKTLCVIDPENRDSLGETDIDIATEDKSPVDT

Structure (SMILES) | IC50 [1] | Ratio IC50 (Homo sapiens [2]) | IC50 [3] | also measured
COc1ccc(-c2nc3c(c(Nc4ccc(CC(=O)O)c(F)c4)n2)S(=O)(=O)CCC3)cc1 | 0.0075 µM | 173 | 1.3 µM | IC50 [4]: 0.096 µM
O=C(O)Cc1ccc(Nc2nc(-c3cc4ccccc4s3)nc3c2S(=O)(=O)CCC3)cc1 | 0.0083 µM | 48 | 0.4 µM | 
O=C(O)Cc1ccc(Nc2nc(-c3ccccc3F)nc3c2SCCC3)cc1 | 0.88 µM | 3.9 | 3.4 µM | 
COc1ccc(-c2nc3c(c(Nc4ccc(CC(=O)O)cc4)n2)S(=O)(=O)CCC3)cn1 | 0.25 µM | 15 | 3.8 µM | 
COc1cccc2cc(-c3nc4c(c(Nc5ccc(CC(=O)O)cc5)n3)S(=O)(=O)CCC4)ccc12 | 0.03 µM | 9.7 | 0.29 µM | 
COc1ccc(-c2nc3c(c(Nc4ccc(CC(=O)O)cc4)n2)SCCC3)cn1 | 0.14 µM | 53 | 7.4 µM | 
COc1ccc(-c2nc3c(c(Nc4ccc(CC(=O)O)cc4)n2)SCCC3)c(F)c1F | 0.14 µM | 16 | 2.2 µM | 
COc1cccc(-c2nc3c(c(Nc4ccc(CC(=O)O)cc4)n2)SCCC3)c1 | 0.12 µM | 15 | 1.8 µM | 
O=C(O)Cc1ccc(Nc2nc(-c3cc4ccccc4s3)nc3c2S(=O)(=O)CCC3)cc1F | 0.0038 µM | 158 | 0.6 µM | IC50 [4]: 0.011 µM
O=C(O)Cc1ccc(Nc2nc(-c3ccc(-c4ccccc4)cc3)nc3c2S(=O)(=O)CCC3)cc1 | 0.038 µM | 21 | 0.79 µM | 
O=C(O)Cc1ccc(Nc2nc(-c3ccccc3)nc3c2SCCC3)cc1 | 0.21 µM | 6.2 | 1.3 µM | IC50 [5]: 1.3 µM; Ratio IC50 (Homo sapiens [6]): 45
CC(=O)c1ccc(-c2nc3c(c(Nc4ccc(CC(=O)O)cc4)n2)SCCC3)cc1 | 0.034 µM | 29 | 1 µM | 
COc1ccc(-c2nc3c(c(Nc4ccc(CC(=O)O)c(F)c4)n2)S(=O)(=O)CCC3)cc1Cl | 0.003 µM | 433 | 1.3 µM | IC50 [4]: 0.011 µM
COc1ccc(-c2nc3c(c(Nc4ccc(CC(=O)O)cc4)n2)S(=O)(=O)CCC3)cc1F | 0.01 µM | 100 | 1 µM | 
COc1ccc(-c2nc3c(c(Nc4cc(F)c(CC(=O)O)cc4Cl)n2)S(=O)(=O)CCC3)cc1F | 0.0099 µM | 57 | 0.56 µM | 
COc1ccc(-c2nc3c(c(Nc4ccc(CC(=O)O)c(F)c4)n2)S(=O)(=O)CCC3)cc1F | 0.0046 µM | 135 | 0.62 µM | Papp at 4 h, 50 µM [7]: 143 nm/s; logD at 0.5 h, 200 µM [8]: 0.8; half-life [9]: 2 h; AUC [10]: 2.77 µg·h/mL; Cmax [11]: 1.7 µg/mL; IC50 [4]: 0.018 µM
O=C(O)Cc1ccc(Nc2nc(-c3ccc4ccccc4c3)nc3c2S(=O)(=O)CCC3)cc1 | 0.019 µM | 27 | 0.52 µM | 
COc1ccc(-c2nc3c(c(Nc4ccc(CC(=O)NCC(C)(C)C)cc4)n2)S(=O)(=O)CCC3)cc1F | 0.078 µM | 3.8 | 0.3 µM | 
CN(C)c1ccc(-c2nc3c(c(Nc4ccc(CC(=O)O)cc4)n2)SCCC3)cc1 | 0.038 µM | 21 | 0.79 µM | 
CCCCNC(=O)Cc1ccc(Nc2nc(-c3ccccc3)nc3c2S(=O)(=O)CCC3)cc1 | 0.07 µM | 2.6 | 0.18 µM | IC50 [5]: 0.26 µM; Ratio IC50 (Homo sapiens [6]): 12
COc1ccc(-c2nc3c(c(Nc4cc(F)c(CC(=O)O)c(F)c4)n2)S(=O)(=O)CCC3)cc1F | 0.0052 µM | 112 | 0.58 µM | 

Structure (SMILES) | IC50 [1] | Ratio IC50 (Homo sapiens [2]) | IC50 [3] | also measured
N#Cc1ccc(-c2nc3c(c(Nc4ccc(CC(=O)O)cc4)n2)SCCC3)cc1 | 0.03 µM | 9.7 | 0.29 µM | 
COc1ccc(-c2nc3c(c(Nc4ccc(CC(=O)O)cc4)n2)S(=O)(=O)CCC3)c(F)c1F | 0.046 µM | 74 | 3.4 µM | 
CN(C)c1ccc(-c2nc3c(c(Nc4ccc(CC(=O)O)cc4)n2)S(=O)(=O)CCC3)cc1 | 0.038 µM | 55 | 2.1 µM | 
COc1ccc(-c2nc3c(c(Nc4ccc(CC(=O)O)cc4)n2)SCCC3)cc1 | 0.011 µM | 25 | 0.28 µM | 
CN(C)c1ccc(-c2nc3c(c(Nc4ccc(CC(=O)O)cc4)n2)SCCC3)cn1 | 0.14 µM | 11 | 1.6 µM | 
CC(=O)c1ccc(-c2nc3c(c(Nc4ccc(CC(=O)O)cc4)n2)S(=O)(=O)CCC3)cc1 | 0.01 µM | 86 | 0.86 µM | 
CN(C)c1ccc(-c2nc3c(c(Nc4ccc(CC(=O)O)cc4)n2)S(=O)(=O)CCC3)cn1 | 0.056 µM | 21 | 1.2 µM | 
COc1ccc(-c2nc3c(c(Nc4ccc(CC(=O)O)cc4)n2)SCCC3)cc1Cl | 0.071 µM | 6.1 | 0.43 µM | 
COc1ccc(-c2nc3c(c(Nc4ccc(CC(=O)O)c(Cl)c4)n2)S(=O)(=O)CCC3)cc1F | 0.064 µM | 20 | 1.3 µM | 
COc1ccc(-c2nc3c(c(Nc4ccc(CC(=O)O)c(F)c4)n2)S(=O)(=O)CCC3)c(F)c1F | 0.0082 µM | 171 | 1.4 µM | IC50 [4]: 0.131 µM
O=C(O)Cc1ccc(Nc2nc(-c3ccc(F)cc3)nc3c2SCCC3)cc1 | 0.12 µM | 8.3 | 1 µM | 
O=C(O)Cc1ccc(Nc2nc(-c3ccccc3)nc3c2S(=O)(=O)CCC3)cc1 | 0.15 µM | 3.7 | 0.55 µM | IC50 [5]: 2.8 µM; Ratio IC50 (Homo sapiens [6]): 112
COc1ccc(-c2nc3c(c(Nc4ccc(CC(=O)O)cc4)n2)S(=O)(=O)CCC3)cc1 | 0.044 µM | 34 | 1.5 µM | 
O=C(O)Cc1ccc(Nc2nc(-c3cc4ccccc4o3)nc3c2S(=O)(=O)CCC3)cc1 | 0.02 µM | 55 | 1.1 µM | 
O=C(O)Cc1ccc(Nc2nc(-c3ccc(Cl)cc3)nc3c2SCCC3)cc1 | 0.12 µM | 3.5 | 0.42 µM | 
O=C(O)Cc1ccc(Nc2nc(-c3ccc4ccccc4c3)nc3c2S(=O)(=O)CCC3)cc1F | 0.0059 µM | 137 | 0.81 µM | IC50 [4]: 0.044 µM
COc1ccc(-c2nc3c(c(Nc4cc(F)c(CC(=O)O)cc4F)n2)S(=O)(=O)CCC3)cc1F | 0.016 µM | 81 | 1.3 µM | 
COc1ccc(-c2nc3c(c(Nc4ccc(CC(=O)O)cc4)n2)S(=O)(=O)CCC3)cc1Cl | 0.013 µM | 100 | 1.3 µM | 
COc1ccc(-c2nc3c(c(Nc4cc(Cl)c(CC(=O)O)cc4Cl)n2)S(=O)(=O)CCC3)cc1F | 0.049 µM | 12 | 0.6 µM | 
O=C(O)Cc1ccc(Nc2nc(-c3cccc(F)c3)nc3c2SCCC3)cc1 | 0.057 µM | 12 | 0.68 µM | 
O=C(O)Cc1ccc(Nc2nc(-c3ccc4c(F)cccc4c3)nc3c2S(=O)(=O)CCC3)cc1 | 0.014 µM | 31 | 0.44 µM | 
